Experimental data reported in patent US20090270490A1, “METHODS INVOLVING ALDOSE REDUCTASE INHIBITION” (THE BOARD OF REGENTS OF THE UNIVERSITY OF TEXAS SYSTEM, priority 2008, published 2009).

Experiments:
[1] = test system: lens epithelial cells in pig eye capsular bags; experiment: Lens epithelial cell growth in pig eye capsular bags (trypan blue cell counting); format: cell-based; settings: 7 days culture
Procedure: (§1) Pig eye capsular bags were prepared by phacoemulsification followed by capsulorhexis and incubated in Dulbecco's Modified Eagle's Medium (DMEM) supplemented with 10% FBS and 1% penicillin and streptomycin without or with AR inhibitors, sorbinil (50 μM) and fidarestat (10-30 μM) for 7 days in 5% CO2 condition at 37° C. Medium was replaced with fresh medium without or with AR inhibitors every day. At the end of incubation, capsular bags were examined under the dissection microscope, cut into four pieces and flat mounted on glass slide with cellular side facing up. The pieces of capsular bags were fixed with 4% paraformaldehyde for 3-4 h at 4° C. After fixation, they were washed, transferred to 70% alcohol and stored at 4° C. until used for immunohistochemical analysis.
The pig eye capsular bags were incubated for 7 days as described above. The lens epithelial cells were detached from capsular bags by incubating with 0.25% trypsin-EDTA solution. The trypsinized cells were harvested, washed with PBS and re-suspended in PBS. To determine cell growth, equal volumes of cell suspension and trypan blue were mixed and the cells which excluded trypan blue dye were counted manually by using a hemocytometer.
Phacoemulsification technique for cataract surgery in humans was used to operate enucleated pig eyes. After removing the lens, a capsular tension ring was inserted in the capsular bag. The capsular bag was then cultured in complete growth-medium without or with AR inhibitors. […] After 7 days in culture, the ring was removed and the cells were harvested by trypsinization. The harvested cells were counted using trypan blue exclusion principle.

[2] = test system: α-SMA, β-crystallin and ICAM-1 expression; experiment: Immunohistochemical analysis of flat-mounted pig eye capsular bags; format: cell-based; settings: 7 days of culture; sorbinil 50 μM, fidarestat 30 μM
Procedure: as §1
The capsular bag specimens flat mounted on slides were washed thrice with PBS and incubated with blocking solution containing 2% BSA, 0.1% Triton-X100, 5% normal goat serum for 1 h at room temperature. Subsequently specimens were washed, incubated with antibodies against α-SMA, β-crystallin, PCNA, and ICAM-1 for 1 h at room temperature. The slides were stained with either LSAB-HRP system (Dako, Carpinteria, Calif.) or incubated with respective FITC labeled secondary antibodies. The samples were examined by using Nikon epifluoroscence microscope (EPI-800 microscope) connected to a computer with Metamorph software.

NF-κB DNA binding = experiment: Electrophoretic mobility shift assay (EMSA) of NF-κB in HLEC; format: cell-based, human; settings: inhibitor 20 μM, no b-FGF
Procedure: Adenovirus SV-40 viral DNA-transformed human lens epithelial cells (HLE-B3; HLEC) were purchased from ATCC. Cells were maintained in DMEM supplemented with 20% heat-inactivated FBS, and 50 μg/ml gentamicin. The cells were grown in a humidified incubator at 37° C. and 5% CO2. The HLEC were pretreated with 20 μM of AR inhibitors sorbinil or zopolrestat for overnight in medium containing 0.5% FBS followed by stimulation with various concentrations (0-100 ng/mL) of b-FGF for 24 h and cell viability and expression of α-SMA, β-crystallin and ICAM-1 was quantified. To investigate the effect of b-FGF on NF-κB and MAPK activation, HLEC were starved in medium containing 0.5% FBS with or without AR inhibitors for overnight. The cells were washed with serum-free medium followed by incubation in serum-free medium without or with AR inhibitor containing 50 ng/mL b-FGF for different time intervals.
The HLEC in 150 cm^2 culture flasks were pretreated without or with AR inhibitors for 24 h in serum-free medium, followed by treatment with b-FGF (50 ng/ml) for 1 h at 37° C. The nuclear extracts were prepared as described earlier (Ramana et al., 2003). The Consensus oligonucleotides for NF-κB transcription factors were 5′-end labeled using T4 polynucleotide kinase. EMSA was performed as described earlier (Ramana et al., 2003.). […]

| SMILES | most effective dose at which LEC growth was significantly (p<0.001) inhibited ([1]; doses 10-30 μM tested) [µM] | inhibiting the growth of LEC in pig eye capsular bags ([1]; fidarestat 10-30 μM) | inhibition at 50 µM ([1]; Sus scrofa, Epithelial cell, 168 h, sorbinil 50 μM, pig eye capsular bags, vs control) [%] | expression of α-SMA and β-crystallin in capsular bags (immunohistochemistry) [2] | basal activity of NF-κB with inhibitor alone (NF-κB DNA binding) |
| --- | --- | --- | --- | --- | --- |
| NC(=O)[C@@H]1C[C@]2(NC(=O)NC2=O)c2cc(F)ccc2O1 [fidarestat, (2S,4S)-2-aminoformyl-6-fluoro-spiro[chroman-4,4′-imidazolidine]-2′,5′-dione] | 30 | dose-dependent response |  |  |  |
| O=C1NC(=O)[C@@]2(CCOc3ccc(F)cc32)N1 [sorbinil, (S)-6-fluoro-2,3-dihydrospiro[4H-1-benzopyran-4,4′-imidazolidine]-2′,5′-dione] |  |  | ~74 | only few cells expressed α-SMA and β-crystallin | did not affect |
| O=C(O)Cc1nn(Cc2nc3cc(C(F)(F)F)ccc3s2)c(=O)c2ccccc12 [zopolrestat] |  |  |  |  | did not affect |
